# From ChEMBL document CHEMBL4507273 (2021)
# pKi: −log10 of the molar value.
# Experiments:
# [1] = molecular target: Homeodomain-interacting protein kinase 1 (Homo sapiens) (UniProt Q86Z02); details: Compound concentration 1000.0 nM
# [2] = molecular target: Tyrosine-protein kinase Fgr (Homo sapiens) (UniProt P09769); details: Compound concentration 1000.0 nM
# [3] = molecular target: Tyrosine-protein kinase Fyn (Homo sapiens) (UniProt P06241); details: Compound concentration 1000.0 nM
# [4] = molecular target: Serine/threonine-protein kinase 4 (Homo sapiens) (UniProt Q13043); details: Compound concentration 1000.0 nM
# [5] = molecular target: SRSF protein kinase 1 (Homo sapiens) (UniProt Q96SB4); details: Compound concentration 1000.0 nM
# [6] = molecular target: Tyrosine-protein kinase ABL1 (Homo sapiens) (UniProt P00519); details: Compound concentration 1000.0 nM
# [7] = molecular target: Calcium/calmodulin-dependent protein kinase type 1B (Homo sapiens) (UniProt Q6P2M8); details: Compound concentration 1000.0 nM
# [8] = molecular target: Tyrosine-protein kinase ZAP-70 (Homo sapiens) (UniProt P43403); details: Compound concentration 1000.0 nM
# [9] = molecular target: Cyclin-dependent kinase 3 (Homo sapiens) (UniProt Q00526); details: Compound concentration 1000.0 nM
# [10] = molecular target: Serine/threonine-protein kinase MRCK beta (Homo sapiens) (UniProt Q9Y5S2); details: Compound concentration 1000.0 nM
# [11] = molecular target: Inhibitor of nuclear factor kappa-B kinase subunit epsilon (Homo sapiens) (UniProt Q14164); details: Compound concentration 1000.0 nM
# [12] = molecular target: Maternal embryonic leucine zipper kinase (Homo sapiens) (UniProt Q14680); details: Compound concentration 1000.0 nM
# [13] = molecular target: Cyclin-dependent kinase 2 (Homo sapiens) (UniProt P24941); details: Compound concentration 1000.0 nM
# [14] = molecular target: Mitogen-activated protein kinase kinase kinase 13 (Homo sapiens) (UniProt O43283); details: Compound concentration 1000.0 nM
# [15] = molecular target: Vascular endothelial growth factor receptor 2 (Homo sapiens) (UniProt P35968); details: Compound concentration 1000.0 nM
# [16] = molecular target: Tyrosine-protein kinase Mer (Homo sapiens) (UniProt Q12866); details: Compound concentration 1000.0 nM
# [17] = molecular target: Fibroblast growth factor receptor 2 (Homo sapiens) (UniProt P21802); details: Compound concentration 1000.0 nM
# [18] = molecular target: Ephrin type-A receptor 3 (Homo sapiens) (UniProt P29320); details: Compound concentration 1000.0 nM
# [19] = test system: Receptor-type tyrosine-protein kinase FLT3 (Homo sapiens), P36888 [D835H]; details: Compound concentration 1000.0 nM
# [20] = molecular target: Cyclin-dependent kinase 4 (Homo sapiens) (UniProt P11802); details: Compound concentration 1000.0 nM
# [21] = molecular target: D(2) dopamine receptor (Homo sapiens, UniProt P14416); details: Compound concentration 10.0 uM
# [22] = molecular target: Serine/threonine-protein kinase 26 (Homo sapiens) (UniProt Q9P289); details: Compound concentration 1000.0 nM
# [23] = test system: Receptor-type tyrosine-protein kinase FLT3 (Homo sapiens), P36888 [UNDEFINED MUTATION]; details: Compound concentration 1000.0 nM
# [24] = molecular target: NT-3 growth factor receptor (Homo sapiens) (UniProt Q16288); details: Compound concentration 1000.0 nM
# [25] = molecular target: TGF-beta receptor type-1 (Homo sapiens) (UniProt P36897); details: Compound concentration 1000.0 nM
# [26] = test system: Phosphatidylinositol 4,5-bisphosphate 3-kinase catalytic subunit alpha isoform (Homo sapiens), P42336 [I800L]; details: Compound concentration 1000.0 nM
# [27] = molecular target: Phosphatidylinositol 5-phosphate 4-kinase type-2 gamma (Homo sapiens) (UniProt Q8TBX8); details: Compound concentration 1000.0 nM
# [28] = molecular target: Serine/threonine-protein kinase ICK (Homo sapiens) (UniProt Q9UPZ9); details: Compound concentration 1000.0 nM
# [29] = test system: Tyrosine-protein kinase ABL1 (Homo sapiens), P00519 [F317I]; details: Compound concentration 1000.0 nM
# [30] = molecular target: Myosin-IIIa (Homo sapiens) (UniProt Q8NEV4); details: Compound concentration 1000.0 nM
# [31] = molecular target: Cyclin-dependent kinase 5 (Homo sapiens) (UniProt Q00535); details: Compound concentration 1000.0 nM
# [32] = molecular target: Calcium/calmodulin-dependent protein kinase type 1D (Homo sapiens) (UniProt Q8IU85); details: Compound concentration 1000.0 nM
# [33] = test system: Hepatocyte growth factor receptor (Homo sapiens), P08581 [Y1235D]; details: Compound concentration 1000.0 nM
# [34] = molecular target: Mitogen-activated protein kinase kinase kinase kinase 2 (Homo sapiens) (UniProt Q12851); details: Compound concentration 1000.0 nM
# [35] = molecular target: 5-hydroxytryptamine receptor 1D (Homo sapiens, UniProt P28221); assay: GPCRScan assay: inhibition of 5-HT1D; set-up: radioligand conc. used [nm] 1.0 – 2.0, parental cells HEKT; details: for pKi: read-out: Ki; for Ki: read-out: pKi (converted)
# [36] = molecular target: Mitogen-activated protein kinase 10 (Homo sapiens) (UniProt P53779); details: Compound concentration 1000.0 nM
# [37] = molecular target: Serine/threonine-protein kinase BRSK1 (Homo sapiens) (UniProt Q8TDC3); details: Compound concentration 1000.0 nM
# [38] = molecular target: Mast/stem cell growth factor receptor Kit (Homo sapiens) (UniProt P10721); details: Compound concentration 1000.0 nM
# [39] = test system: Tyrosine-protein kinase ABL1 (Homo sapiens), P00519 [H396P]; details: Compound concentration 1000.0 nM
# [40] = molecular target: Serine/threonine-protein kinase PLK3 (Homo sapiens) (UniProt Q9H4B4); details: Compound concentration 1000.0 nM
# [41] = test system: Mast/stem cell growth factor receptor Kit (Homo sapiens), P10721 [A829P]; details: Compound concentration 1000.0 nM
# [42] = molecular target: Serine/threonine-protein kinase 25 (Homo sapiens) (UniProt O00506); details: Compound concentration 1000.0 nM
# [43] = molecular target: Alpha-1B adrenergic receptor (Homo sapiens) (UniProt P35368); details: Compound concentration 10.0 uM
# [44] = molecular target: Cyclin-dependent kinase 14 (Homo sapiens) (UniProt O94921); details: Compound concentration 1000.0 nM
# [45] = molecular target: Serine/threonine-protein kinase 32C (Homo sapiens) (UniProt Q86UX6); details: Compound concentration 1000.0 nM
# Chain of 5-hydroxytryptamine receptor 1D (P28221 whole entry): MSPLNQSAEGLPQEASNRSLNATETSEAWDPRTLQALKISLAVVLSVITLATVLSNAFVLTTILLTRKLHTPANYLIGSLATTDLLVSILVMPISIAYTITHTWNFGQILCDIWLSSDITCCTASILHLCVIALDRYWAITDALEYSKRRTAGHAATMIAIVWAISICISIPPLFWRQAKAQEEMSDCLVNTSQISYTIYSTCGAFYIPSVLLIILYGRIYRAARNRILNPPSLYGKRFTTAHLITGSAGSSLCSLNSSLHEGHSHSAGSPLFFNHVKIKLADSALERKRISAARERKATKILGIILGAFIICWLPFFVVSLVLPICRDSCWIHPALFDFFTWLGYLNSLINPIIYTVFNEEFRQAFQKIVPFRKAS
# Chain of Cyclin-dependent kinase 4 (Homo sapiens) (P11802 whole entry): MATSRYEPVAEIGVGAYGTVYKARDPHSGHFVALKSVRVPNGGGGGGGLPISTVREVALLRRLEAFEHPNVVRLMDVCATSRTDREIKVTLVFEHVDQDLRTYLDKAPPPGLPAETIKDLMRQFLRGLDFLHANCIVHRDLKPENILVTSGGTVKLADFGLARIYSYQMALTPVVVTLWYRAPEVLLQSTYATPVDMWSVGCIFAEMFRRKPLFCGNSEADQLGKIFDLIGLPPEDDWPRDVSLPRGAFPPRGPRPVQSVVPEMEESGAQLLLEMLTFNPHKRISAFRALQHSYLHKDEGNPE
# Chain of Alpha-1B adrenergic receptor (Homo sapiens) (P35368 whole entry): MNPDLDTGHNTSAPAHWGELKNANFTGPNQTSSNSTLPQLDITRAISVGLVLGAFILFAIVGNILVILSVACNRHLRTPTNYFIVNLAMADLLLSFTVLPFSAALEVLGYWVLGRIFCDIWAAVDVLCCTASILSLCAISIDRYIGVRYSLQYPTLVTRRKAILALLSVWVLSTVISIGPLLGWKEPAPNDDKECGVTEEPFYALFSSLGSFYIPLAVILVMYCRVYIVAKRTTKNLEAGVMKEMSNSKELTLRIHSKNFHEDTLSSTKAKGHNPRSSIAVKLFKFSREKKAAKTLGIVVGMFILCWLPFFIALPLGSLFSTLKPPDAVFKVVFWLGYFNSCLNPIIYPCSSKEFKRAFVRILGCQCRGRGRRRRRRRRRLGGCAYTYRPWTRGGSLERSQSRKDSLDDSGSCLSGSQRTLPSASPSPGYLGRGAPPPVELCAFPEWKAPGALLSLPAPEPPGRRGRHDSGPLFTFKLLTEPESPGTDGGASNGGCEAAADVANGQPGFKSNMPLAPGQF
# Chain of Tyrosine-protein kinase Fyn (Homo sapiens) (P06241 2-537 limits assumed): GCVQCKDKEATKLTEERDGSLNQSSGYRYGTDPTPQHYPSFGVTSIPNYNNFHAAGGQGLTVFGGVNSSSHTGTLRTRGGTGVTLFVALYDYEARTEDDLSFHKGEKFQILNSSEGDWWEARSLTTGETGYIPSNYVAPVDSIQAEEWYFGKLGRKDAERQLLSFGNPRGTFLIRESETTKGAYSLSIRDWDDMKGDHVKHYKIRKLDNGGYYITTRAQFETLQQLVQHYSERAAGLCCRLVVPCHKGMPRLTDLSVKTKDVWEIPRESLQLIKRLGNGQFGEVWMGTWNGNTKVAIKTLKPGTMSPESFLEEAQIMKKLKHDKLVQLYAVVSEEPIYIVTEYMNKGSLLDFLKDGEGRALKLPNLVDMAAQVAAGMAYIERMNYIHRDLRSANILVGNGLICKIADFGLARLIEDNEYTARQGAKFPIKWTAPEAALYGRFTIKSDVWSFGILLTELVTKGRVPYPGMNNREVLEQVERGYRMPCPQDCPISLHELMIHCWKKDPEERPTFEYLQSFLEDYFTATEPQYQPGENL
# Chain of Homeodomain-interacting protein kinase 1 (Homo sapiens) (Q86Z02 whole entry, looked up): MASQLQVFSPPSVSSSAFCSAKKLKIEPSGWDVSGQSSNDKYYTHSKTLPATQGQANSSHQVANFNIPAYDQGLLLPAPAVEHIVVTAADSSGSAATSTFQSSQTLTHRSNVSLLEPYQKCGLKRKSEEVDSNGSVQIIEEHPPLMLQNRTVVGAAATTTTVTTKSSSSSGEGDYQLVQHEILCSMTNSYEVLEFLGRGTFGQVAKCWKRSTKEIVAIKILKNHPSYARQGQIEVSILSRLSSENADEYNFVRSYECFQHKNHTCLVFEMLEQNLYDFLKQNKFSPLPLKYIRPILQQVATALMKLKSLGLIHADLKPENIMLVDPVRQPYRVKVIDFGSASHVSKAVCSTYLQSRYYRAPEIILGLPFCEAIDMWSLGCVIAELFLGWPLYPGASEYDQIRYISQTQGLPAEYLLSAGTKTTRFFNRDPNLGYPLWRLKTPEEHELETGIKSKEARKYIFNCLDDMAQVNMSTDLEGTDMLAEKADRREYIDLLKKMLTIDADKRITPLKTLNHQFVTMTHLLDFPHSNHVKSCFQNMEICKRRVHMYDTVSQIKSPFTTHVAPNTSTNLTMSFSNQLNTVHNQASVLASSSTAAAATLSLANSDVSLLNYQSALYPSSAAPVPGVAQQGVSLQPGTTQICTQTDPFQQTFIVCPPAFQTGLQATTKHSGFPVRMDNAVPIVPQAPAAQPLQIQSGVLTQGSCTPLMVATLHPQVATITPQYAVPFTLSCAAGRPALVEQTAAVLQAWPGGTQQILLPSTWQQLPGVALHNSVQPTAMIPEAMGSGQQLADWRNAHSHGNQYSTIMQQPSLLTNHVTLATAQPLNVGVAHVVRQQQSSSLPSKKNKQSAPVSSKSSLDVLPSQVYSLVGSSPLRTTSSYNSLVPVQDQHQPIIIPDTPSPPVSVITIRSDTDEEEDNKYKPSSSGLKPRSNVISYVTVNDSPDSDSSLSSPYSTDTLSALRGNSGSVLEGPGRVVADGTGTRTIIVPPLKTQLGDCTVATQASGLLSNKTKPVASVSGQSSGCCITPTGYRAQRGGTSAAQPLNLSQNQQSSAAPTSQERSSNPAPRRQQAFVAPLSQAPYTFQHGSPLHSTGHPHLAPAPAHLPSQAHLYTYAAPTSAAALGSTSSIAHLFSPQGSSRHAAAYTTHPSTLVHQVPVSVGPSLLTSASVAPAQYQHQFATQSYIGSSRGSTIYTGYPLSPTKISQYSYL
# Chain of Myosin-IIIa (Homo sapiens) (Q8NEV4 whole entry): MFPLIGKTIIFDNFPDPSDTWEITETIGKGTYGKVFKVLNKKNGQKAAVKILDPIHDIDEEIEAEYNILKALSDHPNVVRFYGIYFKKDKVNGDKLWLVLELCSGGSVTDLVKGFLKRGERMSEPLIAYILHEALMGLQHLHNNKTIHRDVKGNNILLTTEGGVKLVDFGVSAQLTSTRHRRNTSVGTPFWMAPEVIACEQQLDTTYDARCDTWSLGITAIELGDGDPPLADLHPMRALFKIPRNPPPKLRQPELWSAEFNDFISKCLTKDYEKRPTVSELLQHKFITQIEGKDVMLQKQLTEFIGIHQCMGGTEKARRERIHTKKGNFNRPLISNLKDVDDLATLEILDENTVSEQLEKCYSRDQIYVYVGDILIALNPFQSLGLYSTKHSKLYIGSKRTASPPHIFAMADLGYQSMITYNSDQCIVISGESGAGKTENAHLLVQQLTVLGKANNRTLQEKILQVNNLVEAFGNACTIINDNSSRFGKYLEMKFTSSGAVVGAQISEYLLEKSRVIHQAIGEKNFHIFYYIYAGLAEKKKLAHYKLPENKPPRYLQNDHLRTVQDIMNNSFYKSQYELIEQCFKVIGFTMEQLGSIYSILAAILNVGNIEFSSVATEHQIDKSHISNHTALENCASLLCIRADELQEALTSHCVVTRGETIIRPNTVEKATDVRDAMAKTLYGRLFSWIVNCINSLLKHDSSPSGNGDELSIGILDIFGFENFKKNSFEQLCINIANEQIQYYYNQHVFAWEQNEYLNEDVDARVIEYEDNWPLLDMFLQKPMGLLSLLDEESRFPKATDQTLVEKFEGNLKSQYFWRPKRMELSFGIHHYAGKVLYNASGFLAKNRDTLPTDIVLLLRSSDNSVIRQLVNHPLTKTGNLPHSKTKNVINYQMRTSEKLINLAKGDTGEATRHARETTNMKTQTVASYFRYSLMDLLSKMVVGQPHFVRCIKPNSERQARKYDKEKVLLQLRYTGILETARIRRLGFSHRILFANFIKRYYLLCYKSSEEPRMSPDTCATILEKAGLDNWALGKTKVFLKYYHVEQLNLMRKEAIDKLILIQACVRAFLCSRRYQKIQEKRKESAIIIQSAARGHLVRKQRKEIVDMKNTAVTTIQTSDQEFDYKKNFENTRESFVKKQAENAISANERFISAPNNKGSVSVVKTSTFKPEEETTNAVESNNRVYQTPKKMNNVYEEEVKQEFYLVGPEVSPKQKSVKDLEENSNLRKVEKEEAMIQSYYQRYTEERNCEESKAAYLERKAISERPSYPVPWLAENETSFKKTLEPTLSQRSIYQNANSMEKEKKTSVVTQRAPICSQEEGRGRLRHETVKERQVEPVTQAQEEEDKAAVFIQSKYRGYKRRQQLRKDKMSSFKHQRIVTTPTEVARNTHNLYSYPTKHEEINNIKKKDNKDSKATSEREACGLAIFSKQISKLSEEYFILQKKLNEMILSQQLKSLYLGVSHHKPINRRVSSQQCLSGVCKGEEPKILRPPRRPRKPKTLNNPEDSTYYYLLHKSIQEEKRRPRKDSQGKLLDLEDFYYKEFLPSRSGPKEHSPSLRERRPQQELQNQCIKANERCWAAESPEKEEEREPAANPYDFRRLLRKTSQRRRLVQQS
# Chain of Mitogen-activated protein kinase 10 (Homo sapiens) (P53779 whole entry): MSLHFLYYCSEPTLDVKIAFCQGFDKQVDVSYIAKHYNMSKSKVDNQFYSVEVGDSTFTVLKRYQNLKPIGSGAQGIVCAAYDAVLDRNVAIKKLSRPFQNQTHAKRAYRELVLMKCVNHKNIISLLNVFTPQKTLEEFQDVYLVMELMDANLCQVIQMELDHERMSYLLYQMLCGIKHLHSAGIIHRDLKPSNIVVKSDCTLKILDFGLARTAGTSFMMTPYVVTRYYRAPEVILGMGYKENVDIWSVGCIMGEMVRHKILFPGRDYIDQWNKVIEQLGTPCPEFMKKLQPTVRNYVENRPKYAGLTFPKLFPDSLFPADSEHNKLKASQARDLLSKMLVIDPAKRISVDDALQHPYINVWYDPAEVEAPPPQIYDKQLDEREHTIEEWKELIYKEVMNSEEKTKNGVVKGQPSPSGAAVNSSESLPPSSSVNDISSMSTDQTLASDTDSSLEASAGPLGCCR
smiles,measurement,setting,value
CNCc1ccccc1-c1csc([C@H](C)Nc2nc(C)nc3cc(OC)c(OC)cc23)c1 [BAY-294],residual activity,[1],79%
same,residual activity,[2],100%
same,residual activity,[3],100%
same,residual activity,[4],100%
same,residual activity,[5],100%
same,residual activity,[6],87%
same,residual activity,[7],100%
same,residual activity,[8],100%
same,residual activity,[9],100%
same,residual activity,[10],100%
same,residual activity,[11],85%
same,residual activity,[12],74%
same,residual activity,[13],91%
same,residual activity,[14],91%
same,residual activity,[15],91%
same,residual activity,[16],72%
same,residual activity,[17],94%
same,residual activity,[18],100%
same,residual activity,[19],74%
same,residual activity,[20],77%
same,inhibition,[21],50.6%
same,residual activity,[22],97%
same,residual activity,[23],81%
same,residual activity,[24],100%
same,residual activity,[25],80%
same,residual activity,[26],81%
same,residual activity,[27],100%
same,residual activity,[28],86%
same,residual activity,[29],100%
same,residual activity,[30],100%
same,residual activity,[31],98%
same,residual activity,[32],100%
same,residual activity,[33],98%
same,residual activity,[34],97%
same,pKi,[35],7.03
same,Ki,[35],92.3 nM
same,residual activity,[36],74%
same,residual activity,[37],89%
same,residual activity,[38],70%
same,residual activity,[39],95%
same,residual activity,[40],87%
same,residual activity,[41],100%
same,residual activity,[42],100%
same,inhibition,[43],94.7%
same,residual activity,[44],100%
same,residual activity,[45],71%
CNCc1ccccc1-c1csc([C@@H](C)Nc2nc(C)nc3cc(OC)c(OC)cc23)c1 [BAY-293],residual activity,[1],78%
same,residual activity,[2],100%
same,residual activity,[3],100%
same,residual activity,[4],100%
same,residual activity,[5],90%
same,residual activity,[6],80%
same,residual activity,[7],95%
same,residual activity,[8],87%
same,residual activity,[9],100%
same,residual activity,[10],89%
same,residual activity,[11],71%
same,residual activity,[12],53%
same,residual activity,[13],82%
same,residual activity,[14],80%
same,residual activity,[15],93%
same,residual activity,[16],61%
same,residual activity,[17],85%
same,residual activity,[18],87%
same,residual activity,[19],55%
same,residual activity,[20],88%
same,inhibition,[21],32.3%
same,residual activity,[22],99%
same,residual activity,[23],48%
same,residual activity,[24],88%
same,residual activity,[25],74%
same,residual activity,[26],85%
same,residual activity,[27],92%
same,residual activity,[28],82%
same,residual activity,[29],100%
same,residual activity,[30],100%
same,residual activity,[31],78%
same,residual activity,[32],100%
same,residual activity,[33],100%
same,residual activity,[34],91%
same,pKi,[35],6.74
same,Ki,[35],170 nM
same,residual activity,[36],71%
same,residual activity,[37],87%
same,residual activity,[38],81%
same,residual activity,[39],93%
same,residual activity,[40],91%
same,residual activity,[41],87%
same,residual activity,[42],89%
same,inhibition,[43],85.8%
same,residual activity,[44],100%
same,residual activity,[45],60%
